# In PubChem BioAssay AID652102 (NMMLSC, 2013):
# Target: Botulinum neurotoxin type A (Clostridium botulinum (strain Hall / ATCC 3502 / NCTC 13319 / Type A)) (UniProt P0DPI1)
# Assay: BoNT/A light chain protease inhibitors, confirmation, biochemical, FRET, full-length substrates, powder set 1 (AID 652102)
# Conditions: BoNT/A LC protease, FRET full-length substrate cleavage
# Chain of Botulinum neurotoxin type A (Clostridium botulinum (strain Hall / ATCC 3502 / NCTC 13319 / Type A)) (P0DPI1 whole entry, looked up): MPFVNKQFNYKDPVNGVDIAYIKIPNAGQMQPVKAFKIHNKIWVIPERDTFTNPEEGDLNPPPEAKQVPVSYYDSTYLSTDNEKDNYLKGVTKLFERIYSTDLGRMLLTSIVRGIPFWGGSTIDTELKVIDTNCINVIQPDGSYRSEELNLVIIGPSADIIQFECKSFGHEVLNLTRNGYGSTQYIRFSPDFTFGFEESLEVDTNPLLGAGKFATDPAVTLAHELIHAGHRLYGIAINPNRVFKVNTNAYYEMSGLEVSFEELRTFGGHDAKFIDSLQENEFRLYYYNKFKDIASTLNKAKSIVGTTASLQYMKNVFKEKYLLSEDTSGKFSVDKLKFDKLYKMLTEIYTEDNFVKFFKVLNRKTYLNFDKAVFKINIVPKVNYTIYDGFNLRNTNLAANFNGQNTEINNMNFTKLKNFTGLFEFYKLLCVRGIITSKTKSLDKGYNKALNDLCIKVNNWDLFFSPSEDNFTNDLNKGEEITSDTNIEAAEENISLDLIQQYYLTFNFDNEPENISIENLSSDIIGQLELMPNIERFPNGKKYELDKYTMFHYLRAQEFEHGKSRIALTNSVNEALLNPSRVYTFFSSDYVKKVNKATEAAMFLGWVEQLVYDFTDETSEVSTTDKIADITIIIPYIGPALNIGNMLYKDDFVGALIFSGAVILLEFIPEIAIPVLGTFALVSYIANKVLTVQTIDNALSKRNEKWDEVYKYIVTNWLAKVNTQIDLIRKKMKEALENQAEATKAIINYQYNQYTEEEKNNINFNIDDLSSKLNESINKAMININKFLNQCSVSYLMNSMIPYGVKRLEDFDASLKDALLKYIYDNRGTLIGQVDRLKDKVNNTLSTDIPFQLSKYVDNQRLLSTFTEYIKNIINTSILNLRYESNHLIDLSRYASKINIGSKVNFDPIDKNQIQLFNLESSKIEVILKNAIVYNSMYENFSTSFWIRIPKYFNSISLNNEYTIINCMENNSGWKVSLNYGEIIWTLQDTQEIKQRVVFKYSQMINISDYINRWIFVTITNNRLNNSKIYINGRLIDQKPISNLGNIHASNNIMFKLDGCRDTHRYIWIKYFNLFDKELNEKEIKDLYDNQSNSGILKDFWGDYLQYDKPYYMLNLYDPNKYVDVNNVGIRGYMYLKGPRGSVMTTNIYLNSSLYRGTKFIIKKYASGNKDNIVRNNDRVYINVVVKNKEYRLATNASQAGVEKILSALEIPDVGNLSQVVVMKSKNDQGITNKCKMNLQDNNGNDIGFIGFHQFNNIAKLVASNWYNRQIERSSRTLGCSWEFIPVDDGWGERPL
smiles,measurement,value
c1ccc(-c2cn3nc(-c4ccccc4)c(-c4ccccc4)nc3n2)cc1,IC50,600 nM
